Assays:
KM-12 colon cancer cells = experiment: Antiproliferative activity against human colon cancer cells (KM-12), ATPlite; type: cell-based; details: KM12, KM-12 cells, 72 hours, read-out: Cell proliferation inhibition (KM-12) IC50
Description: The antiproliferative activities of the compounds according to the invention were measured by the ATPlite technique (Perkin Elmer).
Adherent human colon cancer cells (KM-12 colon cancer cells are TrkA-dependent) are inoculated in 96-well plates (3500 cells/well) on day 0, at a concentration compatible with logarithmic growth for the 72 hours required for the evaluation of the compounds. All of the cells are treated on day 1 and then placed in an incubator at 37° C. under an atmosphere of 5% CO2. Cell viability is evaluated on day 4 by assaying released ATP, which is characteristic of viable cells. IC50s are determined by nonlinear regression on the basis of a sigmoidal dose/response relationship model, wherein the Hill coefficient is left variable, carried out on the GraphPad software package according to the algorithm provided.

[1] = tested on: KM-12 experimental tumor model; experiment: In vivo antitumor activity against the KM-12 experimental tumor model; details: oral route, (q1d6)x2 weeks schedule
Text: This activity is noticeable since colon cancer is overall poor responsive to chemotherapy.

TrkA = biological target: T1, TrkA (Homo sapiens, UniProt P04629); experiment: Test for measuring inhibition of TrkA kinase (Millipore or Kinome Scan, manufacturer's protocols); type: biochemical; details: 10 nM compound
T1 construct: purchased Millipore or Kinome Scan (DiscoverX)
Text: (§1) These kinases are produced by Millipore or Kinome Scan (DiscoverX) and are screened according to the manufacturer's protocols.

TrkB = biological target: T2, TrkB (Homo sapiens, UniProt Q16620); experiment: Test for measuring inhibition of TrkB kinase (Millipore or Kinome Scan, manufacturer's protocols); type: biochemical; details: 10 nM compound
T2 construct: purchased Millipore or Kinome Scan (DiscoverX)
Text: as §1

TrkB (or NTRK2) = biological target: T3, TrkB (or NTRK2) (Homo sapiens, UniProt Q16620); experiment: In vitro kinase glo plus-based kinase assay, TrkB; type: biochemical; details: N=36, 40 μM ATP
T3 construct: using the soluble intracellular segment of theses receptors, containing the kinase activity; purchased Invitrogen
Description: An in vitro kinase glo plus-based kinase assay (Promega) was developed in a 96 wells assay plate format to assess the inhibiting properties of compounds on tropomyosin related kinases (Trk) receptors, using the soluble intracellular segment of theses receptors, containing the kinase activity (TrkA (or NTRK1; 400 ng/well; […] Invitrogen)). […] Plates were removed from incubator, and 50 μl of kinase-glo plus was added to each well, followed by a 10 minute incubation at room temperature. The luciferase-induced luminescence, which is proportional to the ATP remaining in the well, was measured on a luminometer. Controls on each plates included wells with the kinase alone (maximal ATP consumption, or 0% inhibition), wells without the kinase (maximal ATP signal or 100% inhibition), and wells with 20 μM staurosporine (positive control of inhibition). […] N=42; […]

T3 sequence (Q16620 455-822 limits assumed): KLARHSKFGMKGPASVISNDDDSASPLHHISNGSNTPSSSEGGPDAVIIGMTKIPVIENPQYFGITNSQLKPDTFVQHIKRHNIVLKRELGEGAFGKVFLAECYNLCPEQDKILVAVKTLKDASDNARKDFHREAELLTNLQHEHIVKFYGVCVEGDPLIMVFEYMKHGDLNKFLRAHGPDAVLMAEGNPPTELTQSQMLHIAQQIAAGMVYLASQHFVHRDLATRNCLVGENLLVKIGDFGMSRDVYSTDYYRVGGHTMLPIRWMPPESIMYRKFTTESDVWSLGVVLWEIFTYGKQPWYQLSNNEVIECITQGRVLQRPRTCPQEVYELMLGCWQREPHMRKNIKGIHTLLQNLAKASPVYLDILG
T1 sequence (P04629 33-796): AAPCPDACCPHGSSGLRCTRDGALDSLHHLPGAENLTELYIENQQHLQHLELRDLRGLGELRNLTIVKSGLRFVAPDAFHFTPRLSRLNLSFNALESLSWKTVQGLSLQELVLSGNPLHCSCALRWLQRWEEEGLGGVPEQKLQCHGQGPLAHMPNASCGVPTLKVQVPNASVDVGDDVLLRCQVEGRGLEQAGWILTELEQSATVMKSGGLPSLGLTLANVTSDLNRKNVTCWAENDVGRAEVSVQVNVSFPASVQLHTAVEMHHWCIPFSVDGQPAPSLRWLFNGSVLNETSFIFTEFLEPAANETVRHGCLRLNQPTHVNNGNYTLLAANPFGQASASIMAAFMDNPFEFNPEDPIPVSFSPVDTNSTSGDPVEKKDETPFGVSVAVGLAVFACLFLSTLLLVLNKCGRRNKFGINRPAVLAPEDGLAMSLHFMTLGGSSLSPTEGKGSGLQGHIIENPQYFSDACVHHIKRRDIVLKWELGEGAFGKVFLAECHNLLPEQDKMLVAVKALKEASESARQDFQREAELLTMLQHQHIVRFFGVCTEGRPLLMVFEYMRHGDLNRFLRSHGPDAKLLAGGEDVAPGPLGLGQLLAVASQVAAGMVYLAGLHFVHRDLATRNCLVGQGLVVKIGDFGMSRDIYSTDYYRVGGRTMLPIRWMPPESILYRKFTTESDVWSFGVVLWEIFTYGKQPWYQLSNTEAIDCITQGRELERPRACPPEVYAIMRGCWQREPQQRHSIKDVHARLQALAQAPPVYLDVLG
T2 sequence (Q16620 32-822): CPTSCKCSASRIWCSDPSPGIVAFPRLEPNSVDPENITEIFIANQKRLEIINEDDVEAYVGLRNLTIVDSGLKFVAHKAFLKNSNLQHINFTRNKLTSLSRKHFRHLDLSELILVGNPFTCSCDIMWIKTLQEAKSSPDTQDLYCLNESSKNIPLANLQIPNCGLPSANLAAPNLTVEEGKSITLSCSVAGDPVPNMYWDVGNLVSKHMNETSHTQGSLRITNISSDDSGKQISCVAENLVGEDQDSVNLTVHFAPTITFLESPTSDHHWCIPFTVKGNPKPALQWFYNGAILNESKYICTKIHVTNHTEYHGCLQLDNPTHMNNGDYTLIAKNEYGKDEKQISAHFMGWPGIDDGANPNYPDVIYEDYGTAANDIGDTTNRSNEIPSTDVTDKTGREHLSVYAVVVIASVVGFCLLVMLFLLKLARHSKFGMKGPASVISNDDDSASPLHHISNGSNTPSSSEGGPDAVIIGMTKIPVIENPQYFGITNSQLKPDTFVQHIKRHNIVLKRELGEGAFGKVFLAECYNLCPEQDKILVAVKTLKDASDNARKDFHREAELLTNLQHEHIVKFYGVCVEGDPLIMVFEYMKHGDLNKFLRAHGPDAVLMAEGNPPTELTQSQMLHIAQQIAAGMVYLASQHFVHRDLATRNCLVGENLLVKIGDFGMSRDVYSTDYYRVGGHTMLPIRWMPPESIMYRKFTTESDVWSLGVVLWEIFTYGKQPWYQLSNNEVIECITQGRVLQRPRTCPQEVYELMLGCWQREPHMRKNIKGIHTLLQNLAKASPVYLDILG

## CN1CCN(c2ccc(C(=O)Nc3n[nH]c4nc(N)c(Sc5cc(F)cc(F)c5)cc34)c(NC3CCOCC3)c2)CC1 [Example 14-11, N-(6-amino-5-(3,5-difluorophenylthio)-1H-pyrazolo[3,4-b]pyridin-3-yl)-4-(4-methylpiperazin-1-yl)-2-(tetrahydro-2H-pyran-4-ylamino)benzamide]
KM-12 colon cancer cells
  IC50: 2.2 nM

## CN1CCN(c2ccc(C(=O)Nc3n[nH]c4ncc(Sc5cc(F)cc(F)c5)cc34)c(NC3CCOCC3)c2)CC1 [Example 30, N-(5-(3,5-difluorophenylthio)-1-H-pyrazolo[3,4-b]pyridine-3-yl)-4-(4-methylpiperazine-1-yl)-2-(tetrahydro-2H-pyran-4-ylamino)benzamide]
[1]; 120 and 240 mg/kg
  adverse effects: without any adverse effects
[1]; recorded at 120 and 240 mg/kg, lasts one week after the end of treatment
  tumor growth inhibition: up to 96%
KM-12 colon cancer cells
  IC50: 36 nM

## CN1CCN(c2ccc(C(=O)Nc3n[nH]c4ncc(Cc5cc(F)cc(F)c5)cc34)c(NC3CCOCC3)c2)CC1 [Example 30-9, N-(5-(3,5-difluorobenzyl)-1H-pyrazolo[3,4-b]pyridin-3-yl)-4-(4-methylpiperazin-1-yl)-2-(tetrahydro-2H-pyran-4-ylamino)benzamidc]
TrkA
  Enzymatic inhibition at 10 nM (%) TrkA: 55%
TrkB
  Enzymatic inhibition at 10 nM (%) TrkB: 98%

## COC(=O)[C@@]1(O)C[C@H]2O[C@]1(C)n1c3ccccc3c3c4c(c5c6ccccc6n2c5c31)C(=O)NC4 [Example K252a, K252a]
TrkB (or NTRK2)
  IC50: 74 nM
TrkB (or NTRK2); mean±SD
  pIC50 on TrkB: 7.16±0.18

— patent US9428510B2, “Derivatives of azaindazole or diazaindazole type for treating a cancer overexpressing Trk” (PIERRE FABRE MEDICAMENT, priority 2012, dated 2016)
